Measurements from publication PMC9785474, “Solubility Enhancement of Dihydroquercetin via “Green” Phase Modification” (International Journal of Molecular Sciences, 2022).
Values after ≈ are worked out from the molar mass of the structure shown.

Legend:
[1] = Solubility by sedimentation method (centrifugation, UV spectrometry); type: physicochemical; details: for solubility: water, thermodynamic from solid
Experimental: Solubility is one of the key parameters to describe the biopharmaceutical characteristics of active pharmaceutical ingredients. There are different ways of solubility determination. One of them is an express method widely used in pharmaceutical science, described in European Pharmacopeia (EP). More accurate data may be obtained by the sedimentation method. […] To determine the concentration of DHQ solutions, UV spectrometry was applied. Three hundred mg of each DHQ sample were dissolved in 10.0 mL of […] and centrifuged for 5 min at 10,000 rpm by centrifuge MiniSpin® (Eppendorf AG, Hamburg, Germany). The analyzed solutions were prepared by dilution of the supernatant 50 μL up to 25 mL with distilled water. The UV spectra were recorded with a Cary-100 (Varian, Palo Alto, CA, USA). The accurate concentrations were calculated using a calibration curve.

[2] = ABTS/PP antioxidant capacity assay; details: for Antioxidant Capacity, n-Value: ABTS•+ radicals scavenged by one molecule of antioxidant, 6 min, 730 nm; for Antioxidant Capacity, n-Value / Antioxidant Capacity, ΔA: mean ± SD; for Antioxidant Capacity, ΔA: absorbance decrease at 730 nm, 6 min incubation at 32 °C, corrected for self-bleaching; for Changes of ΔA and n-values from DHQR (paired Student's t-test): compared with DHQR
Experimental: To compare the antioxidant capacity of DHQ in different forms, we employed the ABTS/PP assay, as reported by Re et al., with some modifications. In brief, an antioxidant was added to the pre-generated stock solution of radical-cation ABTS^•+, and then, after 6 min incubation in the dark place at 32 °C, the decrease in the absorption at 730 nm was calculated. ABTS^•+ self-bleaching after 6 min was measured in the same conditions without the addition of antioxidants. The initial ABTS^•+ absorbance in the incubation mix before the addition of an antioxidant was adjusted to […]. The stock solution of the radical-cation ABTS^•+ was prepared by the incubation of the ABTS with PP at final concentrations of 7 mM and 2.5 mM, respectively, during 12–16 h in the dark. UV-Vis spectra were obtained on a Cary 100 (Varian, Palo Alto, CA, USA).
The absorbance decrease ∆A at 730 nm due to inhibition of radical-cation ABTS^•+ was calculated as follows (5):∆A = A0 − A1 − ∆Asb,(5) where A0 and A1 are the ABTS^•+ absorbances at 730 nm, pathlength 1 cm, before and 6 min after the antioxidant addition, respectively. The self-bleaching of radical-cation ABTS^•+ ∆Asb was calculated as the difference between the ABTS^•+ absorbance right after the addition of stock ABTS^•+ to PBS to give absorbance 1.0 ± 0.1 and 6 min later.
The amount of ABTS^•+ radicals scavenged by one molecule of antioxidant (n-value) was calculated according to the Equation (6):(6) N=CABTS·+/Cantioxidant=ΔA/ε · Cantioxidant, where CABTS^•+ is the concentration of the scavenged ABTS^•+, ε is the extinction at 730 nm 15,000 L·mol^−1·cm^−1, l is the optical pathlength 1 cm, and Cantioxidant is the concentration of the antioxidant.

[3] = Solubility by European Pharmacopeia (EP) express method; type: physicochemical; details: for solubility: thermodynamic from solid; for solubility / Term by EP: water solubility, ambient conditions, European Pharmacopeia 10.0
Experimental: Solubility is one of the key parameters to describe the biopharmaceutical characteristics of active pharmaceutical ingredients. There are different ways of solubility determination. One of them is an express method widely used in pharmaceutical science, described in European Pharmacopeia (EP). More accurate data may be obtained by the sedimentation method.
The analysis was performed in accordance with the pharmacopoeial monograph of European Pharmacopeia 10.0 [52] at ambient conditions.

[4] = 300 mg in 10.0 mL, centrifuged 5 min at 10,000 rpm, UV spectrometry of supernatant, mean ± SD

Row | Solubility, By Sedimentation Method [1, 4] | Increase of solubility compared with DHQR, sedimentation method [1] | solubility [3] | Term by EP [3] | solubility [1, 4] | Enhancement of water solubility compared with DHQR, EP method ([3]; compared with DHQR) | Compound | Antioxidant Capacity, n-Value [2] | Antioxidant Capacity, ΔA [2] | Changes of ΔA and n-values from DHQR (paired Student's t-test) [2]
1 | 2140 ± 60 µg/mL (≈ 7.03 mM) | 3.1 times | 1000 to 10000 µg/mL (≈ 3.29 to 32.9 mM) | slightly soluble |  |  | O=C1c2c(O)cc(O)cc2O[C@H](c2ccc(O)c(O)c2)[C@H]1O [DHQA] | 7.13 ± 0.19 | 0.499 ± 0.014 | statistically non-significant changes
2 |  | 4.4 times |  | soluble | 3090 ± 90 µg/mL (≈ 10.2 mM) | at least 30 fold | O=C1c2c(O)cc(O)cc2O[C@H](c2ccc(O)c(O)c2)[C@H]1O [DHQE] | 7.19 ± 0.37 | 0.504 ± 0.026 | statistically non-significant changes
3 |  |  | 100 to 1000 µg/mL (≈ 0.329 to 3.29 mM) | very slightly soluble | 700 ± 20 µg/mL (≈ 2.3 mM) |  | O=C1c2c(O)cc(O)cc2OC(c2ccc(O)c(O)c2)C1O (stereo not shown) [DHQR, 2-(3,4-dihydroxyphenyl)-3,5,7-trihydroxy-2,3-dihydro-4H-1-benzopyran-4-one, reference compound] | 7.30 ± 0.24 | 0.511 ± 0.017 | 
